Laboratory results from US7709495B2, “Methods and reagents for the treatment of inflammatory disorders” (CombinatoRx, Incorporated, priority 2003, dated 2010).
Read-outs that look alike come from different tables or passages of the source.

Tests used:
Assay type in all cases: cell-based
TNFα secretion = TNFα secretion assay (ELISA), lipopolysaccharide stimulated white blood cells; details: Homo sapiens, PBMC, read-out: % Inhibition TNFα PBMC LPS
Procedure: (§1) The compound dilution matrix was assayed for the suppression of phorbol 12-myristate 13 acetate/ionomycin stimulated IL-1 and TNFα secretion as well as the suppression of lipopolysaccharide-stimulated TNFα secretion from human white blood cells using the ELISA method, as described below.
(§2) A stock solution containing prednisolone (0.36 mg/ml) was prepared in DMSO. A stock solution containing ibudilast (1.84 mg/ml) was prepared in DMSO. Master plates were prepared for dilutions of the stock solutions above.
(§3) The final single agent plates were generated by transferring 1 μL of stock solution from the specific master plate to separate dilution plates containing 99 μL of media (RPMI; Gibco BRL, #11875-085), 10% fetal bovine serum (Gibco BRL, #25140-097), 2% penicillin/streptomycin (Gibco BRL, #15140-122)) using the Packard Mini-Trak liquid handler. The dilution plates were then mixed and a 10 μL aliquot transferred from each dilution plate to the final assay plate (polystyrene 384-well plate (NalgeNunc)), which had been pre-filled with 30 μL/well RPMI media containing 33 ng/mL phorbol 12-myristate 13-acetate (Sigma, P-1585) and 2.475 ng/mL ionomycin (Sigma, I-0634) or alternatively for the LPS stimulated assay RPMI media containing 2 μg/ml lipopolysaccharide (Sigma, L-4130).
The effects of test compound combinations on TNFα secretion were assayed in white blood cells from human buffy coat stimulated with phorbol 12-myistate 13-acetate, or lipopolysaccharide as follows. Human white blood cells from buffy coat were diluted 1:50 in media (RPMI; Gibco BRL, #11875-085), 10% fetal bovine serum (Gibco BRL, #25140-097), 2% penicillin/streptomycin (Gibco BRL, #15140-122)) and 50 μL of the diluted white blood cells were placed in each well of the final assay plate created in the above section. After 16-18 hours of incubation at 37° C. with 5% CO2 in a humidified incubator, the plate was centrifuged and the supernatant transferred to a white opaque polystyrene 384 well plate (NalgeNunc, Maxisorb) coated with an anti-TNFα antibody (PharMingen, #551220). After a two-hour incubation, the plate was washed (Tecan Powerwasher 384) with PBS containing 0.1% Tween 20 and incubated for one additional hour with biotin labeled anti-TNFα antibody (PharMingen, #554511) and HRP coupled to streptavidin (PharMingen, #13047E). The plate was then washed again with 0.1% Tween 20/PBS. An HRP-luminescent substrate was added to each well, and the light intensity of each well was measured using a plate luminometer.
(§4) The percent inhibition (% I) for each well was calculated using the following formula: % I=[(avg. untreated wells−treated well)/(avg. untreated wells)]×100
(§5) The average untreated well value (avg. untreated wells) is the arithmetic mean of 30 wells from the same assay plate treated with vehicle alone.
TNFα secretion was measured by ELISA as described above after stimulation with lipopolysaccharide. The effects of varying concentrations of ibudilast, prednisolone and a combination of ibudilast and prednisolone were compared to control wells.

IL-1 secretion = IL-1 secretion assay (ELISA), LPS stimulated white blood cells; details: Homo sapiens, PBMC
Procedure: as §1, §2, §3
The effects of test compound combinations on IL-1 secretion were assayed in white blood cells from human buffy coat stimulated with LPS, as follows. Human white blood cells from buffy coat were diluted 1:50 in media (RPMI; Gibco BRL, #11875-085), 10% fetal bovine serum (Gibco BRL, #25140-097), 2% penicillin/streptomycin (Gibco BRL, #15140-122)) and 50 μL of the diluted white blood cells was placed in each well of the final assay plate created in the above section. After 16-18 hours of incubation at 37° C. in a humidified incubator, the plate was centrifuged and the supernatant was transferred to a white opaque 384-well plate (NalgeNunc, MAXISORB) coated with an anti-IL-1 antibody (R&D Systems, MAB601). After a two-hour incubation, the plate was washed (Tecan Powerwasher 384) with PBS containing 0.1% Tween 20 and incubated for an additional one hour with a biotin labeled anti-IL-1 antibody (R&D Systems, BAF201) and horse radish peroxidase coupled to streptavidin (PharMingen, #554066). The plate was then washed again with 0.1% Tween 20/PBS, and an HRP-luminescent substrate was added to each well. Light intensity was then measured using a plate luminometer.
as §4, §5
IL-1 secretion was measured by ELISA as described above after stimulation with lipopolysaccharide. The effects of varying concentrations of ibudilast, prednisolone and a combination of ibudilast and prednisolone were compared to control wells.

[1] = system: white blood cells from human buffy coat; assay: alamarBlue assay (toxicity/cell viability), lipopolysaccharide stimulated; details: PBMC, read-out: % Inhibition of Proliferation of PBMC LPS
Procedure: as §2, §3, §4, §5
(§6) The toxicity of the test combination were assessed using alamarBlue® assayed in white blood cells from human buffy coat stimulated with LPS or phorbol 12-myistate 13-acetate and Ionomycin, as follows. Human white blood cells from buffy coat were diluted 1:50 in media (RPMI; Gibco BRL, #11875-085), 10% fetal bovine serum (Gibco BRL, #25140-097), 2% penicillin/streptomycin (Gibco BRL, #15140-122)) and 50 μL of the diluted white blood cells was placed in each well of the final assay plate created in the above section. After 16-18 hours of incubation at 37° C. with 5% CO2 in a humidified incubator, 5 μl of alamarBlue® (BioSource Intl. Inc., DAL 1100) was added to all of the wells. After 20-24 hours of incubation in 37° C. in a humidified incubator, fluorescence was then measured using a plate fluorometer.
Cell viability was measured the alamarBlue® asay described above after stimulation with lipopolysaccharide. The effects of varying concentrations of ibudilast, prednisolone and a combination of ibudilast and prednisolone were compared to control wells. These wells were stimulated with lipopolysaccharide, but not receive ibudilast or prednisolone.

[2] = system: white blood cells from human buffy coat; assay: alamarBlue assay (toxicity/cell viability), PMA/ionomycin stimulated; details: PBMC, read-out: % Inhibition of Proliferation of PBMC PI
Procedure: as §2, §3, §4, §5, §6
Cell viability was measured using the alamarBlue® assay described above after stimulation with phorbol 12-myristate 13-acetate and ionomycin. The effects of varying concentrations of ibudilast, prednisolone and a combination of ibudilast and prednisolone were compared to control wells.

## CC(C)C(=O)c1c(C(C)C)nn2ccccc12 [Ibudilast, ibudilast]
TNFα secretion; ibudilast 0.062 μM alone
  inhibition at 0.062 µM: 17%
TNFα secretion; ibudilast 0.12 μM alone
  inhibition at 0.12 µM: 24%
TNFα secretion; ibudilast 0.25 μM alone
  inhibition at 0.25 µM: 41%
TNFα secretion; ibudilast 0.5 μM alone
  inhibition at 0.5 µM: 46%
TNFα secretion; ibudilast 1 μM alone
  inhibition at 1 µM: 58%
TNFα secretion; ibudilast 2 μM alone
  inhibition at 2 µM: 66%
TNFα secretion; ibudilast 4 μM alone
  inhibition at 4 µM: 70%
TNFα secretion; ibudilast 8 μM alone
  inhibition at 8 µM: 79%
IL-1 secretion; ibudilast 0.062 μM alone
  inhibition at 0.062 µM: 19%
IL-1 secretion; ibudilast 0.12 μM alone
  inhibition at 0.12 µM: -1.6%
IL-1 secretion; ibudilast 0.25 μM alone
  inhibition at 0.25 µM: 20%
IL-1 secretion; ibudilast 0.5 μM alone
  inhibition at 0.5 µM: 18%
IL-1 secretion; ibudilast 1 μM alone
  inhibition at 1 µM: 41%
IL-1 secretion; ibudilast 2 μM alone
  inhibition at 2 µM: 42%
IL-1 secretion; ibudilast 4 μM alone
  inhibition at 4 µM: 50%
IL-1 secretion; ibudilast 8 μM alone
  inhibition at 8 µM: 61%
[1]; ibudilast 0.062 μM alone
  inhibition at 0.062 µM: -4.6%
[1]; ibudilast 0.12 μM alone
  inhibition at 0.12 µM: -1.5%
[1]; ibudilast 0.25 μM alone
  inhibition at 0.25 µM: -1.8%
[1]; ibudilast 0.5 μM alone
  inhibition at 0.5 µM: -3.8%
[1]; ibudilast 1 μM alone
  inhibition at 1 µM: -2.9%
[1]; ibudilast 2 μM alone
  inhibition at 2 µM: 2.6%
[1]; ibudilast 4 μM alone
  inhibition at 4 µM: -2.4%
[1]; ibudilast 8 μM alone
  inhibition at 8 µM: 0.069%
[2]; ibudilast 0.062 μM alone
  inhibition at 0.062 µM: -1.5%
[2]; ibudilast 0.12 μM alone
  inhibition at 0.12 µM: -5.1%
[2]; ibudilast 0.25 μM alone
  inhibition at 0.25 µM: 0.84%
[2]; ibudilast 0.5 μM alone
  inhibition at 0.5 µM: -4%
[2]; ibudilast 1 μM alone
  inhibition at 1 µM: -1.9%
[2]; ibudilast 2 μM alone
  inhibition at 2 µM: 2.7%
[2]; ibudilast 4 μM alone
  inhibition at 4 µM: 3.3%
[2]; ibudilast 8 μM alone
  inhibition at 8 µM: 6.9%

## C[C@]12C=CC(=O)C=C1CC[C@@H]1[C@@H]2[C@@H](O)C[C@@]2(C)[C@H]1CC[C@]2(O)C(=O)CO [Prednisolone, prednisolone]
TNFα secretion; prednisolone 0.0078 μM alone
  inhibition at 0.0078 µM: 0.085%
TNFα secretion; prednisolone 0.016 μM alone
  inhibition at 0.016 µM: 17%
TNFα secretion; prednisolone 0.031 μM alone
  inhibition at 0.031 µM: 24%
TNFα secretion; prednisolone 0.062 μM alone
  inhibition at 0.062 µM: 47%
TNFα secretion; prednisolone 0.12 μM alone
  inhibition at 0.12 µM: 57%
TNFα secretion; prednisolone 0.25 μM alone
  inhibition at 0.25 µM: 66%
TNFα secretion; prednisolone 0.5 μM alone
  inhibition at 0.5 µM: 68%
TNFα secretion; prednisolone 1 μM alone
  inhibition at 1 µM: 70%
IL-1 secretion; prednisolone 0.0078 μM alone
  inhibition at 0.0078 µM: 18%
IL-1 secretion; prednisolone 0.016 μM alone
  inhibition at 0.016 µM: 25%
IL-1 secretion; prednisolone 0.031 μM alone
  inhibition at 0.031 µM: 50%
IL-1 secretion; prednisolone 0.062 μM alone
  inhibition at 0.062 µM: 69%
IL-1 secretion; prednisolone 0.12 μM alone
  inhibition at 0.12 µM: 70%
IL-1 secretion; prednisolone 0.25 μM alone
  inhibition at 0.25 µM: 74%
IL-1 secretion; prednisolone 0.5 μM alone
  inhibition at 0.5 µM: 77%
IL-1 secretion; prednisolone 1 μM alone
  inhibition at 1 µM: 84%
[1]; prednisolone 0.0078 μM alone
  inhibition at 0.0078 µM: -1.7%
[1]; prednisolone 0.016 μM alone
  inhibition at 0.016 µM: -1.5%
[1]; prednisolone 0.031 μM alone
  inhibition at 0.031 µM: 0.64%
[1]; prednisolone 0.062 μM alone
  inhibition at 0.062 µM: -1.2%
[1]; prednisolone 0.12 μM alone
  inhibition at 0.12 µM: -1.8%
[1]; prednisolone 0.25 μM alone
  inhibition at 0.25 µM: -1.3%
[1]; prednisolone 0.5 μM alone
  inhibition at 0.5 µM: -3.3%
[1]; prednisolone 1 μM alone
  inhibition at 1 µM: -3.8%
[2]; prednisolone 0.0078 μM alone
  inhibition at 0.0078 µM: 4%
[2]; prednisolone 0.016 μM alone
  inhibition at 0.016 µM: 1%
[2]; prednisolone 0.031 μM alone
  inhibition at 0.031 µM: 1.7%
[2]; prednisolone 0.062 μM alone
  inhibition at 0.062 µM: -1.7%
[2]; prednisolone 0.12 μM alone
  inhibition at 0.12 µM: 3.2%
[2]; prednisolone 0.25 μM alone
  inhibition at 0.25 µM: 4.6%
[2]; prednisolone 0.5 μM alone
  inhibition at 0.5 µM: 0.19%
[2]; prednisolone 1 μM alone
  inhibition at 1 µM: 3.1%
